Results published in US9174997B2, “4-(4-cyano-2-thioaryl)dihydropyrimidinones and use thereof” (Bayer Intellectual Property GmbH, priority 2007, dated 2015).

These molecules were tested against human neutrophil elastase (HNE) (Homo sapiens (Human), UniProt P08246) (assay: In vitro HNE inhibition assay). Conditions: HNE concentration of 80 pM; substrate MeOSuc-Ala-Ala-Pro-Val-AMC; 37° C. for 2 hours.
Assay type: biochemical
Procedure: B-1. In Vitro HNE Inhibition Assay
The potency of the compounds of the invention is ascertained in an in vitro inhibition assay. The HNE-mediated amidolytic cleavage of a suitable peptide substrate leads in this connection to an increase in the fluorescent light. The signal intensity of the fluorescent light is directly proportional to the enzyme activity.
Enzyme ([…]; from Serva, Heidelberg) and substrate (20 μM MeOSuc-Ala-Ala-Pro-Val-AMC; from Bachem, Weil am Rhein) are incubated in an assay volume of in total 50 μl of assay buffer (0.1 M HEPES pH 7.4, 0.5 M NaCl, 0.1% w/v BSA, 1% v/v DMSO) in a 384-well microtiter plate in the presence and absence of the test substance at 37° C. for 2 hours. […] The IC50 values are determined by plotting the intensity of the fluorescent light against the active substance concentration.

human neutrophil elastase (HNE), sequence (P08246 30-267): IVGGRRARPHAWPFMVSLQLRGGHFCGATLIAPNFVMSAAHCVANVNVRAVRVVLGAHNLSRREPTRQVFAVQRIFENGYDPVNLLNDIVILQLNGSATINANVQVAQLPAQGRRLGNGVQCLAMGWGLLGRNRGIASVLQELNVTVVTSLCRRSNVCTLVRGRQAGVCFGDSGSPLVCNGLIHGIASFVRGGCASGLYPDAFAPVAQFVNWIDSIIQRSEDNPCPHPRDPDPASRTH

| IC50 [nM] | Structure (SMILES) |
| --- | --- |
| < 0.3 | CC1=C(C#N)[C@@H](c2ccc(C#N)cc2S(C)(=O)=O)N(C(=O)N(CC(C)O)CC(C)O)C(=O)N1c1cccc(C(F)(F)F)c1 (stereo partly drawn) [Example 80] |
| < 0.3 | CC1=C(C#N)[C@@H](c2ccc(C#N)cc2S(C)(=O)=O)N(C(=O)OCc2ccccc2)C(=O)N1c1cccc(C(F)(F)F)c1 (stereo in doubt) [Example 120, Benzyl 5-cyano-6-[4-cyano-2-(methylsulfonyl)phenyl]-4-methyl-2-oxo-3-[3-(trifluoromethyl)phenyl]-3,6-dihydropyrimidine-1(2H)-carboxylate] |
| < 0.3 | CSc1cc(C#N)ccc1[C@H]1NC(=O)N(c2cccc(C(F)(F)F)c2)C(C)=C1C#N [Example 41, (4S)-4-[4-Cyano-2-(methylsulfanyl)phenyl]-6-methyl-2-oxo-1-[3-(trifluoromethyl)phenyl]-1,2,3,4-tetrahydropyrimidine-5-carbonitrile] |
| < 0.3 | CC1=C(C#N)[C@@H](c2ccc(C#N)cc2S(=O)(=O)c2ccccc2)NC(=O)N1c1cccc(C(F)(F)F)c1 [Example 141, (4S)-4-{4-Cyano-2-[phenylsulfonyl]phenyl}-6-methyl-2-oxo-1-[3-(trifluoromethyl)phenyl]-1,2,3,4-tetrahydropyrimidine-5-carbonitrile] |

Each molecule was assayed on rat hepatocytes (assay: Hepatocyte assay to determine the metabolic stability). Conditions: after incubation with rat hepatocytes.
Assay type: in vitro ADME
Procedure: B-6. Hepatocyte Assay to Determine the Metabolic Stability
The metabolic stability of test compounds in the presence of hepatocytes is determined by incubating the compounds with low concentrations (preferably below or around 1 μM) and with low cell counts (preferably 1*10^6 cells/ml) in order to ensure as far as possible linear kinetic conditions in the experiment. Seven samples of the incubation solution are taken in a fixed time pattern for the […] analysis in order to determine the half-life (i.e. the degradation) of the compound in each case. Various clearance parameters (CL) and Fmax values are calculated from this half-life (see below).
The Cl and Fmax values represent a measure of the phase 1 and phase 2 metabolism of the compounds in the hepatocytes. In order to minimize the influence of the organic solvent on the enzymes in the incubation mixtures, this concentration is generally limited to 1% (acetonitrile) or 0.1% (DMSO).
A cell count for hepatocytes in the liver of 1.1*10^8 cells/g of liver is used for calculation for all species and breeds.
The calculated parameters and their meaning are:
Representative values for the compounds according to the invention from this assay after incubation of the compounds with rat hepatocytes are shown in Table B below: […]

| CLblood, calculated blood clearance (well stirred model) [L/h/kg] | Fmax, maximum possible bioavailability after oral administration (well-stirred) [%] | Structure (SMILES) |
| --- | --- | --- |
| 1.0 | 75 | CN1CC2=C(C1=O)[C@@H](c1ccc(C#N)cc1S(C)(=O)=O)N(C)C(=O)N2c1cccc(C(F)(F)F)c1 [Example 123, 4-(4S)-3,6-Dimethyl-2,5-dioxo-1-[3-(trifluoromethyl)phenyl]-2,3,4,5,6,7-hexahydro-1 H-pyrrolo[3,4-d]pyrimidin-4-yl-3-(methylsulfonyl)benzonitrile] |
| 0.3 | 93 | CC1=C(C#N)[C@@H](c2ccc(C#N)cc2S(C)(=O)=O)N(CC(=O)N2CCNC(=O)C2)C(=O)N1c1cccc(C(F)(F)F)c1 [Example 25, (4S)-4-[4-Cyano-2-(methylsulfonyl)phenyl]-6-methyl-2-oxo-3-[2-oxo-2-(3-oxopiperazin-1-yl)ethyl]-1-[3-(trifluoromethyl)phenyl]-1,2,3,4-tetrahydropyrimidine-5-carbonitrile] |
| 0.6 | 87 | CC1=C(C#N)[C@@H](c2ccc(C#N)cc2S(C)(=O)=O)N(C)C(=O)N1c1cccc(C(F)(F)F)c1 [Example 33, (4S)-4-[4-Cyano-2-(methylsulfonyl)phenyl]-3,6-dimethyl-2-oxo-1-[3-(trifluoromethyl)phenyl]-1,2,3,4-tetrahydropyrimidine-5-carbonitrile] |
| 0.2 | 96 | CN1CC2=C(C1=O)C(c1ccc(C#N)cc1S(C)(=O)=O)N(C(=O)NCCO)C(=O)N2c1cccc(C(F)(F)F)c1 (racemic) [Example 38, (rac)-4-[4-Cyano-2-(methylsulfonyl)phenyl]-N-(2-hydroxyethyl)-6-methyl-2,5-dioxo-1-[3-(trifluoromethyl)phenyl]-1,2,4,5,6,7-hexahydro-3H-pyrrolo[3,4-d]pyrimidine-3-carboxamide] |
| 0.2 | 94 | CCS(=O)(=O)c1cc(C#N)ccc1[C@H]1NC(=O)N(c2cccc(C(F)(F)F)c2)C(C)=C1C#N [Example 127, (4S)-4-[4-Cyano-2-(ethylsulfonyl)phenyl]-6-methyl-2-oxo-1-[3-(trifluoromethyl)phenyl]-1,2,3,4-tetrahydropyrimidine-5-carbonitrile] |
| 0.9 | 79 | CCS(=O)(=O)c1cc(C#N)ccc1[C@@H]1C(C#N)=C(C)N(c2cccc(C(F)(F)F)c2)C(=O)N1S(C)(=O)=O [Example 129, (4S)-4-[4-Cyano-2-(ethylsulfonyl)phenyl]-6-methyl-3-(methylsulfonyl)-2-oxo-1-[3-(trifluoromethyl)phenyl]-1,2,3,4-tetrahydropyrimidine-5-carbonitrile] |
| 0.2 | 96 | CC1=C(C#N)[C@@H](c2ccc(C#N)cc2S(C)(=O)=O)NC(=O)N1c1cccc(C(F)(F)F)c1 [Example 6, (4S)-4-[4-Cyano-2-(methylsulfonyl)phenyl]-6-methyl-2-oxo-1-[3-(trifluoromethyl)phenyl]-1,2,3,4-tetrahydropyrimidine-5-carbonitrile] |
| 0.4 | 90 | CC1=C(C#N)[C@@H](c2ccc(C#N)cc2S(C)(=O)=O)N(S(=O)(=O)c2ccccc2OC(F)(F)F)C(=O)N1c1cccc(C(F)(F)F)c1 [Example 29, (4S)-4-[4-Cyano-2-(methylsulfonyl)phenyl]-6-methyl-3-{[2-(trifluoromethoxy)phenyl]sulfonyl}-2-oxo-1-[3-(trifluoromethyl)phenyl]-1,2,3,4-tetrahydropyrimidine-5-carbonitrile] |
| 0.6 | 86 | CC1=C(C#N)[C@@H](c2ccc(C#N)cc2S(C)(=O)=O)N(c2cccc(C(F)(F)F)c2)C(=O)N1c1cccc(C(F)(F)F)c1 [Example 118, (4S)-4-[4-Cyano-2-(methylsulfonyl)phenyl]-6-methyl-2-oxo-1,3-bis[3-(trifluoromethyl)phenyl]-1,2,3,4-tetrahydropyrimidine-5-carbonitrile] |
| 0.7 | 83 | CC1=C(C#N)[C@@H](c2ccc(C#N)cc2S(C)(=O)=O)N(S(=O)(=O)c2cn(C)c(C)n2)C(=O)N1c1cccc(C(F)(F)F)c1 [Example 92] |
| 0.4 | 91 | CCS(=O)(=O)N1C(=O)N(c2cccc(C(F)(F)F)c2)C(C)=C(C#N)[C@H]1c1ccc(C#N)cc1S(C)(=O)=O [Example 31, (4S)-4-[4-Cyano-2-(methylsulfonyl)phenyl]-6-methyl-3-(ethylsulfonyl)-2-oxo-1-[3-(trifluoromethyl)phenyl]-1,2,3,4-tetrahydropyrimidine-5-carbonitrile] |
| 0.1 | 97 | CC1=C(C#N)[C@@H](c2ccc(C#N)cc2S(C)(=O)=O)N(c2ccc(C#N)cc2)C(=O)N1c1cccc(C(F)(F)F)c1 [Example 117, (4S)-4-[4-Cyano-2-(methylsulfonyl)phenyl]-3-(4-cyanophenyl)-6-methyl-2-oxo-1-[3-(trifluoromethyl)phenyl]-1,2,3,4-tetrahydropyrimidine-5-carbonitrile] |
| 0.0 | 100 | CC1=C(C(N)=O)[C@@H](c2ccc(C#N)cc2S(C)(=O)=O)NC(=O)N1c1cccc(C(F)(F)F)c1 [Example 5, (4S)-4-[4-Cyano-2-(methylsulfonyl)phenyl]-6-methyl-2-oxo-1-[3-(trifluoromethyl)phenyl]-1,2,3,4-tetrahydropyrimidine-5-carboxamide] |
